In patent publication US20150305333A1, “USE OF GLUCOSAMINE AMIDES AS PLANT GROWTH AND YIELD ENHANCERS” (PIONEER HI-BRED INTERNATIONAL, INC., priority 2012, published 2015):

Experiments:
Format in all cases: in vivo
soybean seeds = experiment: Petri dish seed germination assay, soybean
Description: (§1) A series of Petri dish seed assays was conducted to evaluate the effects NPG on the seed germination rates of corn, soybean, and canola seeds subjected to cold stress, salt stress and non-stressed conditions (salt stress only for canola). Assays were performed with ten replications of ten seeds/plate (100 total seeds). NPG was applied to seeds at the specified concentrations prior to being placed in Petri plates. Seeds designated for Salt Stress Experiments 1 & 2 were placed in Petri dishes containing a 100 mM NaCl solution and incubated at 21° C.-22° C. in the dark. Cold stress Petri dishes were incubated at 15° C. in the dark. Untreated Controls were incubated at 21° C.-22° C. in the dark as were seeds utilized in the separately conducted non-stressed germination assays. Data was recorded as percent germination at designated times after plating. Statistical analyses were performed using one-way Anova and Kruskal-Wallis one-way analysis of variance on rank combined with Dunn's all pairwise multiple comparison procedure (α=0.05).

[1] = test system: Shepody potatoes (Solanum tuberosum); experiment: Potato field trial 2010: emergence, flowering, marketable yield; settings: for Marketable Potato Yield for One Row of Plot: one 8 m row, fresh weight
Description: A potato field trial was conducted to evaluate the effects of NPG on plant emergence, flowering and yield in Shepody potatoes (Solanum tuberosum) planted near Thorndale, Ontario, Canada, in 2010. Seed treatments included an Untreated Control, three concentrations of NPG and three concentrations of an LCO derived from Bradyrhizobium japonicum to serve as a positive control. The LCO was provided by Dr. Don Smith (McGill University, Montreal, Canada) using the basic method described in Soulemanov, A., et al., in Microbiol. Res., 157: 25-28 (2005). Aqueous solutions of NPG and LCO were applied at 10^−6M, 10^−7M and 10^−8M to seed pieces using a spray nozzle and left to soak on a plastic sheet for 20 minutes. The seed pieces were beginning to sprout when planted on June 8th in a loam composed of 41% sand, 39% silt and 20% clay and 4.5% organic matter.
Potatoes were planted at a rate of 33,300 seed pieces/ha to a depth of 20 cm and hilled using a tractor mounted potato hiller. Weeds were controlled using three L/ha of 40.6 wt % linuron. Insects were controlled using 250 ml/ha 18.4 wt % chlorantraniprole, and disease was controlled using a tank mix of 1.6 kg/ha 75 wt % mancozeb and 225 g/ha 60 wt % cymoxanil fungicides. Before harvest, plants were sprayed twice (seven days apart) with 39.5 wt % diquat dibromide herbicide at a rate of 2 L/ha. All of the products used are industry standards and representative of what is used in commercial production.
The trial was conducted using a randomized complete block design with a plot size of 2 m by 8 m with a 100 cm row spacing, 30 cm plant spacing and four replications Due to wet weather, the soil was damp and cloddy during the planting and hilling process.
Marketable potato yield was determined by harvesting one entire 8 m row of the plot (Table 3). The Untreated Control row with the highest emergence was harvested. Yields were not corrected for differences in emergence rates. The 10^−6 M and 10^−7 M NPG treatments and the 10^−8 M LCO treatment provided a statistically significant increase in marketable fresh weight yield compared to the Untreated Control.

corn seeds = experiment: Petri dish seed germination assay, corn
Description: as §1

CCCCCCC=CCCCCCCCC(=O)NC1C(OC)OC(CO)C(O)C1O [NPG, Methyl 2-deoxy-2-N-(hexadece-9,10-cis-eneoyl)-β-D-glucopyranoside]
Soybean Seed Germination (soybean seeds; Cold Stress (15° C.), 10^−6M × 4 Times, 30 HAP): 29a % | Soybean Seed Germination (soybean seeds; Cold Stress (15° C.), 10^−6M × 4 Times, 36 HAP): 58a % | Soybean Seed Germination (soybean seeds; Cold Stress (15° C.), 10^−6M × 4 Times, 44 HAP): 81a % | Soybean Seed Germination (soybean seeds; Cold Stress (15° C.), 10^−6M × 4 Times, 50 HAP): 90a % | Soybean Seed Germination (soybean seeds; Cold Stress (15° C.), 10^−6M × 4 Times, 60 HAP): 97a % | Soybean Seed Germination (soybean seeds; Cold Stress (15° C.), 10^−6M, 30 HAP): 26a % | Soybean Seed Germination (soybean seeds; Cold Stress (15° C.), 10^−6M, 36 HAP): 58a % | Soybean Seed Germination (soybean seeds; Cold Stress (15° C.), 10^−6M, 44 HAP): 80a % | Soybean Seed Germination (soybean seeds; Cold Stress (15° C.), 10^−6M, 50 HAP): 90a % | Soybean Seed Germination (soybean seeds; Cold Stress (15° C.), 10^−6M, 60 HAP): 96a % | Soybean Seed Germination (soybean seeds; Cold Stress (15° C.), 10^−7M, 30 HAP): 23a % | Soybean Seed Germination (soybean seeds; Cold Stress (15° C.), 10^−7M, 36 HAP): 51a % | Soybean Seed Germination (soybean seeds; Cold Stress (15° C.), 10^−7M, 44 HAP): 84a % | Soybean Seed Germination (soybean seeds; Cold Stress (15° C.), 10^−7M, 50 HAP): 91a % | Soybean Seed Germination (soybean seeds; Cold Stress (15° C.), 10^−7M, 60 HAP): 95a % | Soybean Seed Germination (soybean seeds; Non-Stressed, 10^−6M × 4 Times, 27 HAP): 72a % | Soybean Seed Germination (soybean seeds; Non-Stressed, 10^−6M × 4 Times, 34 HAP): 88a % | Soybean Seed Germination (soybean seeds; Non-Stressed, 10^−6M × 4 Times, 45 HAP): 94a % | Soybean Seed Germination (soybean seeds; Non-Stressed, 10^−6M, 27 HAP): 70a % | Soybean Seed Germination (soybean seeds; Non-Stressed, 10^−6M, 34 HAP): 93a % | Soybean Seed Germination (soybean seeds; Non-Stressed, 10^−6M, 45 HAP): 97a % | Soybean Seed Germination (soybean seeds; Salt Stress (100 mM NaCl), 10^−6M × 4 Times, 27 HAP): 17a % | Soybean Seed Germination (soybean seeds; Salt Stress (100 mM NaCl), 10^−6M × 4 Times, 34 HAP): 76ab % | Soybean Seed Germination (soybean seeds; Salt Stress (100 mM NaCl), 10^−6M × 4 Times, 45 HAP): 89ab % | Soybean Seed Germination (soybean seeds; Salt Stress (100 mM NaCl), 10^−6M × 4 Times, 55 HAP): 96a % | Soybean Seed Germination (soybean seeds; Salt Stress (100 mM NaCl), 10^−6M × 4 Times, 65 HAP): 99a % | Soybean Seed Germination (soybean seeds; Salt Stress (100 mM NaCl), 10^−6M, 27 HAP): 22a % | Soybean Seed Germination (soybean seeds; Salt Stress (100 mM NaCl), 10^−6M, 34 HAP): 73ab % | Soybean Seed Germination (soybean seeds; Salt Stress (100 mM NaCl), 10^−6M, 45 HAP): 83ab % | Soybean Seed Germination (soybean seeds; Salt Stress (100 mM NaCl), 10^−6M, 55 HAP): 95a % | Soybean Seed Germination (soybean seeds; Salt Stress (100 mM NaCl), 10^−6M, 65 HAP): 99a % | Potato Emergence ([1]; 10^−6M seed piece treatment, 15 DAP): 16b % | Potato Emergence ([1]; 10^−6M seed piece treatment, 17 DAP): 41b % | Potato Emergence ([1]; 10^−6M seed piece treatment, 21 DAP): 68c % | Potato Emergence ([1]; 10^−6M seed piece treatment, 29 DAP): 72c % | Potato Flowering ([1]; 10^−6M seed piece treatment, 42 DAP): 19a % | Potato Flowering ([1]; 10^−6M seed piece treatment, 50 DAP): 53ab % | Marketable Potato Yield for One Row of Plot ([1]; 10^−6M seed piece treatment): 17.92b Kg/Plot | Potato Emergence ([1]; 10^−7M seed piece treatment, 15 DAP): 9ab % | Potato Emergence ([1]; 10^−7M seed piece treatment, 17 DAP): 30ab % | Potato Emergence ([1]; 10^−7M seed piece treatment, 21 DAP): 48b % | Potato Emergence ([1]; 10^−7M seed piece treatment, 29 DAP): 52b % | Potato Flowering ([1]; 10^−7M seed piece treatment, 42 DAP): 20a % | Potato Flowering ([1]; 10^−7M seed piece treatment, 50 DAP): 47ab % | Marketable Potato Yield for One Row of Plot ([1]; 10^−7M seed piece treatment): 16.05b Kg/Plot | Potato Emergence ([1]; 10^−8M seed piece treatment, 15 DAP): 13ab % | Potato Emergence ([1]; 10^−8M seed piece treatment, 17 DAP): 30ab % | Potato Emergence ([1]; 10^−8M seed piece treatment, 21 DAP): 45b % | Potato Emergence ([1]; 10^−8M seed piece treatment, 29 DAP): 55b % | Potato Flowering ([1]; 10^−8M seed piece treatment, 42 DAP): 11a % | Potato Flowering ([1]; 10^−8M seed piece treatment, 50 DAP): 54ab % | Marketable Potato Yield for One Row of Plot ([1]; 10^−8M seed piece treatment): 13.80ab Kg/Plot | Corn Seed Germination (corn seeds; Cold Stress (15° C.), 10^−6M, 48 HAP): 13ab % | Corn Seed Germination (corn seeds; Cold Stress (15° C.), 10^−6M, 56 HAP): 52a % | Corn Seed Germination (corn seeds; Cold Stress (15° C.), 10^−6M, 65 HAP): 100% | Corn Seed Germination (corn seeds; Cold Stress (15° C.), 10^−7M, 48 HAP): 20ab % | Corn Seed Germination (corn seeds; Cold Stress (15° C.), 10^−7M, 56 HAP): 52a % | Corn Seed Germination (corn seeds; Cold Stress (15° C.), 10^−7M, 65 HAP): 100% | Corn Seed Germination (corn seeds; Non-Stressed, 10^−6M, 28 HAP): 34a % | Corn Seed Germination (corn seeds; Non-Stressed, 10^−6M, 34 HAP): 80a % | Corn Seed Germination (corn seeds; Non-Stressed, 10^−6M, 44 HAP): 100a % | Corn Seed Germination (corn seeds; Salt Stress (100 mM NaCl) Experiment 2, 10^−6M, 32 HAP): 20b % | Corn Seed Germination (corn seeds; Salt Stress (100 mM NaCl) Experiment 2, 10^−6M, 42 HAP): 90a % | Corn Seed Germination (corn seeds; Salt Stress (100 mM NaCl) Experiment 2, 10^−7M, 32 HAP): 44a % | Corn Seed Germination (corn seeds; Salt Stress (100 mM NaCl) Experiment 2, 10^−7M, 42 HAP): 87a %
